This is an account of results in article PMC12123460 (ACS Central Science, 2025).

Data set [1] concerns the target full length human μ opioid receptor (MOR) (Homo sapiens, UniProt P35372). The data set is described as follows: 3H-naltrexone radioligand competition binding, MOR membranes.
The target of data set [2] is T1, murine κ opioid receptor (KOR) (Mus musculus, UniProt P33534). The data set is described as follows: 3H-naltrexone radioligand competition binding, KOR membranes.
For the next data set, the target named is murine KOR (Mus musculus, UniProt P33534). Nature of the data set: Live cell GloSensor cAMP assay, antagonist mode, KOR-expressing HEK293T cells. Conditions: for KOR Signaling: GloSensor cAMP, HEK293T, 10 μM forskolin, salvinorin A at EC80.
For a further data set, the target named is human MOR (Homo sapiens, UniProt P35372). Nature of the data set: Live cell GloSensor cAMP assay, antagonist mode, MOR-expressing HEK293T cells. Conditions: 10 μM forskolin, DAMGO at EC80.
Data set [3] concerns the target T1, murine κ opioid receptor (KOR). Nature of the data set: biochemical.
The subject of data set [4] is C56BL/6 mice.
The test system of data set [5] is C56BL/6 mice. Nature of the data set: Opioid withdrawal symptoms assay in morphine tolerant mice. Conditions: 1 h after morphine 20 mg/kg, naloxone 10 mg/kg, #020_E1 30 mg/kg.
Data set [6] deals with C56BL/6 mice. Nature of the data set: Conditioned place aversion in morphine tolerant mice.
Where [7] appears, read: read-out: MOR Ki binding affinity, 3H-naltrexone displacement, mean from three dose response experiments.
Setting [8] is: read-out: KOR Ki binding affinity, 3H-naltrexone displacement, mean from three dose response experiments.
Setting [9] is: read-out: MOR Ki estimate (†), calculated from the Cheng–Prusoff equation based on a single point at 33 μM ligand.

“Also recorded” adds a separate entry of the source. Read-outs that look alike come from different tables or passages of the source.

For `CCN1[C@@H]2C=C(C)[C@@](C)(C[C@H]2C(=O)OC)[C@@H]1C` (racemic) [(±)-#001], the inhibitory constant (Ki) in data set [1] (setting [7]) worked out at 7100 nM.

Take `COC(=O)[C@@H]1C[C@]2(C)C(c3cc(F)cc(F)c3)=C[C@H]1N(C1CN(CCO)C1)[C@H]2C` (racemic) [(±)-#57]: the values for the Ki in data set [2] (setting [8]) and in data set [1] (setting [7]) were 1100 nM and 5000 nM, respectively.

In the case of `COC(=O)C1CC2(C)C(c3cccc(O)c3)=CC1N(CCOc1c(C)cccc1C)C2C` (stereo not drawn) [#017_E2], the “KOR Signaling” value at murine KOR is “Antagonist”. Further, at human MOR, the “MOR Signaling” value is recorded as “Antagonist”.

For the compound `COC(=O)C1CC2(C)C(c3ccco3)=CC1N(C(C)CN1CCCC1)C2C` (racemic) [(±)-#11], in data set [2] (setting [8]), the inhibition constant Ki worked out at 400 nM.

For the compound `CCn1cc(CN2C3C=C(c4cccc(O)c4)C(C)(CC3C(=O)OC)C2C)cn1` (stereo not drawn) [#020_E2], at murine KOR, the response was half-maximal at 380 nM (EC50) and the “KOR Signaling” value is reported as “Antagonist”. For the same compound, at human MOR, the “MOR Signaling” value is “Antagonist”. In data set [3], this compound gave a Ki of 1.1 nM.

As to `COC(=O)[C@@H]1C[C@]2(C)C(C)=C(C)[C@H]1N(Cc1cnn(CC(F)F)c1)[C@H]2C` (racemic) [(±)-#56], in data set [1] (setting [7]), the inhibitory constant (Ki) came out at 8800 nM.

As to `CCCCC1=C[C@@H]2[C@H](C(=O)OC)C[C@@]1(C)[C@H](C)N2C[C@@H]1CCO1` (racemic) [(±)-#09], the Ki in data set [2] (read-out: KOR Ki estimate (†), calculated from the Cheng–Prusoff equation based on a single point at 33 μM ligand) is 12000 nM; in data set [1] (setting [9]), 14000 nM.

For the compound `CN1CC[C@]23c4c5ccc(O)c4O[C@H]2[C@@H](O)C=C[C@H]3[C@H]1C5` [morphine], the Tail flick latency result in the data set with C56BL/6 mice [4] (20 mg/kg i.p.) was “significantly increased tail flick latency”.

Take `C=CCN1CC[C@]23c4c5ccc(O)c4O[C@H]2C(=O)CC[C@@]3(O)[C@H]1C5` [naloxone]: the “i.p. dose required to return tail flick latency to baseline levels” value in the data set with C56BL/6 mice [4] (blocking of 20mg/kg morphine induced analgesia, dose response) is given as 10 mg/kg. For the same compound, the “Precipitated opioid withdrawal symptoms (jumps, wet-dog shakes, rearing, forepaw shakes)” value in the data set on C56BL/6 mice [5] was “induced behaviors consistent with aversive withdrawal”. Further, the “Time spent in the antagonist-paired chamber pre- vs post-conditioning” value in the data set on C56BL/6 mice [6] (morphine tolerant mice, withdrawal precipitated by the antagonist) is “marked decrease in time spent in the antagonist-paired chamber; also recorded: significantly less time in the chamber”. The CPA score entry in the data set with C56BL/6 mice [6] (test minus pretest time in drug-paired compartment) was “avoided the treatment compartment to a greater extent”.

Turning to `CC1=C(c2cccc(O)c2)C2(C)CCC1N(CCc1ccccc1)C2C` (stereo not drawn) [#030_E2], on murine KOR, the “KOR Signaling” value is reported as “Inverse Agonist”. Further, the “MOR Signaling” value on human MOR is listed as “Antagonist”.

For the compound `CCn1cc(CN2C3C(C)=C(c4cccc(O)c4)C(C)(CC3C(=O)OC)C2C)cn1` (stereo not drawn) [#031_E2], on murine KOR, the “KOR Signaling” value is on record as “Inverse Agonist”. In addition, at human MOR, the “MOR Signaling” value is given as “Antagonist”.

On to `COC(=O)C1CC2(C)C(c3cccc(O)c3)=C(C)C1N(C)C2C` (stereo not drawn) [#019_E2], for which the “KOR Signaling” value at murine KOR is “Inverse Agonist”. Also, the “MOR Signaling” value on human MOR is on record as “Antagonist”.

As for 3H-naltrexone [reference compound], the Kd was 2.71 nM in data set [2] (read-out: Kd of the radioligand in KOR membrane preparation, saturation experiments, nonspecific binding with 33 μM unlabeled naloxone) and 1.97 nM in data set [1] (read-out: Kd of the radioligand in MOR membrane preparation, saturation experiments, nonspecific binding with 33 μM unlabeled naloxone).

Turning to `COC(=O)[C@@H]1C[C@]2(C)C(c3ccc(O)c(OC)c3)=C[C@H]1N(CCN)[C@H]2C` [(+)-#33], the Ki in data set [2] (setting [8]) came to 1200 nM; in data set [1] (setting [7]) it was 980 nM.

In the case of `CCN1CC(N2[C@@H]3C=C(c4ccccc4O)[C@@](C)(C[C@H]3C(=O)OC)[C@@H]2C)C1` (racemic) [(±)-#05], the Ki in data set [2] (setting [8]) was 8000 nM; in data set [1] (setting [9]) it was 16000 nM.
